Data: PMC6792352, “Limited Chemical Structural Diversity Found to Modulate Thyroid Hormone Receptor in the Tox21 Chemical Library” (Environmental Health Perspectives, 2019)
Where a name gives a salt, the structure may show the parent alone.

Assay: in vitro
Conditions: rat, gh3-tre-luc cells, AC50 (uM) modified / 1000
Work on `C=CC(=O)OCCOCC(CC)(COCCOC(=O)C=C)COCCOC(=O)C=C` [Trimethylolpropane ethoxylate triacrylate] yielded a CC50 at 24 h of 23.1 µM. In the case of `CC1(C)NC(=O)NC1=O` [5,5-Dimethylhydantoin], the CC50 at 24 h is reported as over 90 µM. With `C=C(C)[C@@H]1CC=C(C)C(=O)C1` [R-(-)-Carvone] the CC50 at 24 h was over 90 µM. In the case of `CCOC(=O)CC` [Ethyl propionate], the CC50 at 24 h is reported as over 90 µM. `CC1CCC(C(C)(C)S)C(=O)C1` (stereo not drawn) [p-Mentha-8-thiol-3-one] showed a CC50 at 24 h of over 90 µM. Compound `CNC(=O)NC` [N,N'-Dimethylurea] has a CC50 at 24 h of over 90 µM. `CCOC(=O)C1=NN(c2ccccc2)C(=O)C1` [Ethyl 5-oxo-1-phenyl-4,5-dihydro-1H-pyrazole-3-carboxylate] showed a CC50 at 24 h of over 90 µM. Work on `COc1ccc(-c2noc(CC(=O)O)c2-c2ccc(OC)cc2)cc1` [Mofezolac] yielded a CC50 at 24 h of over 50 µM. Work on `CCCCN(CCCC)C(=S)S` [Sodium dibutylcarbamodithioate] yielded a CC50 at 24 h of over 90 µM. For `CCCCOCCOCCO` [2-(2-Butoxyethoxy)ethanol], the CC50 at 24 h was over 90 µM. For `COC(=O)c1ccc(C(=O)O)cc1` [1,4-Benzenedicarboxylic acid, monomethyl ester], the CC50 at 24 h was over 90 µM. `O=C(O)Cc1cn(-c2ccccc2)nc1-c1ccc(Cl)cc1` [Lonazolac] showed a CC50 at 24 h of over 50 µM. In the case of `O=C(NC(=O)c1c(F)cccc1F)Nc1cc(Cl)c(Oc2ncc(C(F)(F)F)cc2Cl)c(Cl)c1` [Chlorfluazuron], the CC50 at 24 h is reported as 71.4 µM. For `C(/C=C/C=C/Nc1ccccc1)=Nc1ccccc1` [N,N'-Penta-1,3-dien-1-yl-5-ylidenedianiline hydrochloride], the CC50 at 24 h was over 90 µM. Work on `C=CC(=O)OCCOc1ccccc1` [2-Phenoxyethyl acrylate] yielded a CC50 at 24 h of over 90 µM. With `O=C(O)CC(C(=O)O)S(=O)(=O)O` (stereo not drawn) [Sulfosuccinic acid] the CC50 at 24 h was over 90 µM. In the case of `CCOS(=O)(=O)OCC` [Diethyl sulfate], the CC50 at 24 h is reported as over 90 µM. `O=c1cc[nH]c(=S)[nH]1` [Thiouracil] gave a CC50 at 24 h of over 90 µM. For `Cn1c(N)nc2nc[nH]c2c1=O` [1-Methylguanine], the CC50 at 24 h was over 90 µM. `NCCN1CCOCC1` [2-Morpholinoethylamine] gave a CC50 at 24 h of over 90 µM. `CC(=O)O[C@]1(C(C)=O)CC[C@H]2[C@@H]3C[C@H](C)C4=CC(=O)CC[C@]4(C)[C@H]3CC[C@@]21C` [Medroxyprogesterone acetate] gave a CC50 at 24 h of over 90 µM. `Nc1ncn([C@H]2C[C@H](O)[C@@H](CO)O2)c(=O)n1` [Decitabine] showed a CC50 at 24 h of over 50 µM. Compound `CCCCCCCCCCC=CC#N` [Tridec-2-enenitrile] has a CC50 at 24 h of over 90 µM. Work on `Cc1cc(=O)[nH]c(=S)[nH]1` [6-Methyl-2-thiouracil] yielded a CC50 at 24 h of over 90 µM. With `CC(C)c1ccc2cc(C(C)C)ccc2c1` [2,6-Diisopropylnaphthalene] the CC50 at 24 h was over 90 µM. `O=C(N[C@H]1CN2CCC1CC2)c1cc2ccoc2cn1` [PHA-00543613] showed a CC50 at 24 h of over 90 µM. Compound `N#CCC(=O)O` [Cyanoacetic acid] has a CC50 at 24 h of over 90 µM. `CCCN1CCC[C@H](c2cccc(O)c2)C1` [R-3-PPP hydrochloride] showed a CC50 at 24 h of over 50 µM. Work on `CCCCCCCC/C=C\CCCCCCCC(=O)OCCOC(=O)CCCCCCC/C=C\CCCCCCCC` [Polyethylene glycol dioleate] yielded a CC50 at 24 h of over 100 µM. For `NC(=O)c1c(Cl)cccc1Cl` [2,6-Dichlorobenzamide], the CC50 at 24 h was over 90 µM. `Clc1cc(C(Cl)(Cl)Cl)cnc1Cl` [2,3-Dichloro-5-(trichloromethyl)pyridine] showed a CC50 at 24 h of over 90 µM. For `O=C(CCCN1CCN(c2ccccn2)CC1)c1ccc(F)cc1` [Azaperone], the CC50 at 24 h was over 50 µM. Work on `C#CCN(C)[C@H](C)Cc1ccccc1` [Selegiline hydrochloride] yielded a CC50 at 24 h of over 50 µM. With `COc1ccc(C(=CC(=O)N2CCOCC2)c2ccc(Cl)cc2)cc1OC` [Dimethomorph] the CC50 at 24 h was over 90 µM. For `CCCCCCCCCCOC(C)=O` [Decyl acetate], the CC50 at 24 h was over 90 µM. For `OCC(CO)n1cnc(-c2ccc(F)cc2)c1-c1ccnc(Oc2ccccc2)n1` [SB281832], the CC50 at 24 h was over 90 µM. With `CC(c1ccc(O)cc1)(c1ccc(O)cc1)c1ccc(O)cc1` [4,4',4"-Ethane-1,1,1-triyltriphenol] the CC50 at 24 h was 55.5 µM. `CN[C@H](CC(C)C)C(=O)N[C@H]1C(=O)N[C@@H](CC(N)=O)C(=O)N[C@H]2C(=O)N[C@H]3C(=O)N[C@H](C(=O)N[C@H](C(=O)O)c4cc(O)cc(O)c4-c4cc3ccc4O)[C@H](O)c3ccc(c(Cl)c3)Oc3cc2cc(c3O[C@@H]2O[C@H](CO)[C@@H](O)[C@H](O)[C@H]2O[C@H]2C[C@](C)(N)[C@H](O)[C@H](C)O2)Oc2ccc(cc2Cl)[C@H]1O` [Vancomycin hydrochloride] gave a CC50 at 24 h of over 50 µM. For `COc1ccc2sc(C(=O)Nc3nnn[nH]3)c(OC(C)C)c2c1` [CI-959], the CC50 at 24 h was 6.07 µM. With `COC(=O)C(Br)CBr` (stereo not drawn) [Methyl 2,3-dibromopropionate] the CC50 at 24 h was over 90 µM. For `C=C(C)C(=O)OCCC(C)OC(=O)C(=C)C` (stereo not drawn) [1,3-Butyleneglycol dimethacrylate], the CC50 at 24 h was over 90 µM. With `CCOC(=O)C(C)Oc1ccc(Oc2nc3ccc(Cl)cc3o2)cc1` (stereo not drawn) [Fenoxaprop-ethyl] the CC50 at 24 h was over 90 µM. For `O=C(/C=C/c1ccccc1)OCCc1ccccc1` [2-Phenylethyl 3-phenylprop-2-enoate], the CC50 at 24 h was over 90 µM. `Cc1ccn2nc(S(=O)(=O)Nc3c(F)cccc3F)nc2n1` [Flumetsulam] gave a CC50 at 24 h of over 90 µM. Compound `Clc1cc(Cl)c(Cl)c(Cl)c1` [1,2,3,5-Tetrachlorobenzene] has a CC50 at 24 h of over 90 µM. In the case of `CCCOC(=O)c1ccc(O)cc1` [Propylparaben], the CC50 at 24 h is reported as over 90 µM. With `C=CCc1ccccc1O` [2-Allylphenol] the CC50 at 24 h was over 90 µM. `COc1cc(C(=O)NS(=O)(=O)c2ccccc2C)ccc1Cc1cn(C)c2ccc(NC(=O)OC3CCCC3)cc12` [Zafirlukast] gave a CC50 at 24 h of 28.8 µM. Compound `O=C(Cl)c1c(Cl)c(Cl)c(C(=O)Cl)c(Cl)c1Cl` [2,3,5,6-Tetrachlorobenzene-1,4-dicarbonyl dichloride] has a CC50 at 24 h of over 90 µM. For `CC(C)(C)NC[C@H](O)COc1nsnc1N1CCOCC1` [(S)-Timolol], the CC50 at 24 h was over 50 µM. With `O=C(CCCN1CCC(n2c(O)nc3ccccc32)CC1)c1ccc(F)cc1` [Benperidol] the CC50 at 24 h was over 20 µM. Compound `CC(C(O)c1ccccc1)N(C)CCOC(c1ccccc1)c1ccccc1` (stereo not drawn) [Difeterol] has a CC50 at 24 h of 15.1 µM. `CC(N)Cc1ccc(O)cc1` (stereo not drawn) [Hydroxyamphetamine hydrobromide] gave a CC50 at 24 h of over 50 µM. `CCC(C(=O)OCCN(CC)CC)c1ccccc1` (stereo not drawn) [Butetamate] gave a CC50 at 24 h of over 50 µM. For `COc1cccc2c1C(=O)c1c(O)c3c(c(O)c1C2=O)C[C@@](O)(C(C)=O)C[C@@H]3O[C@H]1C[C@H](N)[C@H](O)[C@H](C)O1` [Daunomycin hydrochloride], the CC50 at 24 h was 0.244 µM. `CC(C)[C@H]1CC[C@H](C)C[C@@H]1O` [(1S,2R,5S)-(+)-Menthol] showed a CC50 at 24 h of over 90 µM. `OC[C@H]1O[C@H](O[C@H]2O[C@H](CO)[C@@H](O)[C@H](O)[C@H]2O)[C@H](O)[C@@H](O)[C@@H]1O` [Trehalose dihydrate] gave a CC50 at 24 h of over 90 µM. For `CCCCOC(=O)CO` [Butyl hydroxyacetate], the CC50 at 24 h was over 90 µM. For `CCc1c(C(=O)NN2CCCCC2)nn(-c2ccc(Cl)cc2Cl)c1-c1ccc(Br)cc1` [Surinabant], the CC50 at 24 h was 12.3 µM. Work on `Oc1cc(Cl)c(Cl)c(Cl)c1` [3,4,5-Trichlorophenol] yielded a CC50 at 24 h of 29.9 µM. Compound `CC(C)(C#N)c1cc(Cn2cncn2)cc(C(C)(C)C#N)c1` [Anastrozole] has a CC50 at 24 h of over 30 µM. In the case of `O=C1CCCc2ccccc21` [1,2,3,4-Tetrahydronaphthalen-1-one], the CC50 at 24 h is reported as over 90 µM. `CC(C)(CO)[C@@H](O)C(=O)NCCCO` [Dexpanthenol] showed a CC50 at 24 h of over 50 µM. Work on `CCC(=O)OCC(=O)[C@@]1(OC(=O)CC)[C@@H](C)C[C@H]2[C@@H]3CCC4=CC(=O)C=C[C@]4(C)[C@@]3(F)[C@@H](O)C[C@@]21C` [Betamethasone dipropionate] yielded a CC50 at 24 h of over 50 µM. `N#Cc1ccc(C(=O)O)cc1` [4-Cyanobenzoic acid] showed a CC50 at 24 h of over 90 µM. Work on `CCN(CC)CCNC(=O)c1c(C)[nH]c(/C=C2\C(=O)Nc3ccc(F)cc32)c1C` [Sunitinib malate] yielded a CC50 at 24 h of 20.1 µM. For `Nc1c(Cl)cc([N+](=O)[O-])cc1Cl` [Dicloran], the CC50 at 24 h was over 90 µM. `OCC(CO)(CO)CO` [Pentaerythritol] showed a CC50 at 24 h of over 100 µM. With `Cc1cc2nc3c(=O)[nH]c(=O)nc-3n(C[C@H](O)[C@H](O)[C@H](O)CO)c2cc1C` [Riboflavin] the CC50 at 24 h was over 90 µM.

Same assay, conditions: rat, gh3-tre-luc cells, AC50 (uM) modified / 1000, Tox21_110001=Tox21_110628; viability, 1 nM T3 present, 24 h
Work on `CCOC(=O)c1cncn1[C@H](C)c1ccccc1` [Etomidate] yielded a CC50 at 24 h of over 20 µM.

Same assay, conditions: rat, gh3-tre-luc cells, AC50 (uM) modified / 1000, Tox21_110001=Tox21_111576; viability, 1 nM T3 present, 24 h
With `C[C@]12C=CC(=O)C=C1CC[C@@H]1[C@@H]2CC[C@]2(C)OC(=O)CC[C@@H]12` [Testolactone] the CC50 at 24 h was over 50 µM.

Same assay, conditions: rat, gh3-tre-luc cells, AC50 (uM) modified / 1000, Tox21_110001=Tox21_112083; viability, 1 nM T3 present, 24 h
Compound `O=c1[nH]c(=O)n(Cl)c(=O)n1Cl` [Sodium dichloroisocyanurate] has a CC50 at 24 h of over 50 µM.

Same assay, conditions: rat, gh3-tre-luc cells, AC50 (uM) modified / 1000, Tox21_110001=Tox21_200235; viability, 1 nM T3 present, 24 h
With `Cl/C=C/CCl` [1,3-Dichloropropene] the CC50 at 24 h was over 90 µM.

Same assay, conditions: rat, gh3-tre-luc cells, AC50 (uM) modified / 1000, Tox21_110001=Tox21_201464; viability, 1 nM T3 present, 24 h
Work on `Cc1ccc([N+](=O)[O-])cc1` [4-Nitrotoluene] yielded a CC50 at 24 h of over 90 µM.

Same assay, conditions: rat, gh3-tre-luc cells, AC50 (uM) modified / 1000, Tox21_110001=Tox21_201601; viability, 1 nM T3 present, 24 h
Work on `O=c1[nH]c(=O)n(Cl)c(=O)n1Cl` [Sodium dichloroisocyanurate] yielded a CC50 at 24 h of over 90 µM.

Same assay, conditions: rat, gh3-tre-luc cells, AC50 (uM) modified / 1000, Tox21_110001=Tox21_301964; viability, 1 nM T3 present, 24 h
For `CON(C)C(=O)Nc1ccc(Br)cc1` [Metobromuron], the CC50 at 24 h was over 90 µM.

Same assay, conditions: rat, gh3-tre-luc cells, AC50 (uM) modified / 1000, Tox21_110001=Tox21_302262; viability, 1 nM T3 present, 24 h
In the case of `CNP(=O)(OC)Oc1ccc(C(C)(C)C)cc1Cl` (stereo not drawn) [Crufomate], the CC50 at 24 h is reported as over 90 µM.

Same assay, conditions: rat, gh3-tre-luc cells, AC50 (uM) modified / 1000, Tox21_110001=Tox21_400083; viability, 1 nM T3 present, 24 h
For `O=S(=O)(O)C(F)(F)C(F)(F)C(F)(F)C(F)(F)C(F)(F)C(F)(F)C(F)(F)C(F)(F)F` [Perfluorooctanesulfonic acid], the CC50 at 24 h was over 90 µM.
